In ChEMBL document CHEMBL4507291 (2021):

Experiments:
[1] = target: Receptor tyrosine-protein kinase erbB-2 (Homo sapiens) (UniProt P04626); assay: ERBB2 (HER2) Kinase screen; conditions: Compound concentration 1.0 uM
[2] = organism: Rattus norvegicus; assay: Testosterone Eurofins-Panlabs radioligand binding assay; set-up: ligand concentration 1.5 nM; conditions: Compound concentration 10.0 uM
[3] = target: T1, Alpha-1A adrenergic receptor (Homo sapiens) (UniProt P35348); conditions: Rattus norvegicus; Compound concentration 10.0 uM
T1 sequence (whole entry): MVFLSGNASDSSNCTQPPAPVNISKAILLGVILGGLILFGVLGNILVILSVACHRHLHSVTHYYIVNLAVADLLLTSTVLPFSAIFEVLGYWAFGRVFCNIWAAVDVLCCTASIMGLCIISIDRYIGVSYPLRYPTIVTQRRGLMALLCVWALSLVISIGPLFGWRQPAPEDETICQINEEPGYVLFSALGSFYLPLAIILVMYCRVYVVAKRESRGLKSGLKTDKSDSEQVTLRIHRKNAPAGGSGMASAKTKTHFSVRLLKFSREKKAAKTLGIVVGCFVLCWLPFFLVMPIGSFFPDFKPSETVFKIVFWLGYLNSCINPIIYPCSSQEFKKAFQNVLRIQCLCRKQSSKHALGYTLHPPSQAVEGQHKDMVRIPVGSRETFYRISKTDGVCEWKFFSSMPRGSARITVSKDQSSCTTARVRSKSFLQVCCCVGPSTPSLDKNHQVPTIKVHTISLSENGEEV

[4] = organism: Homo sapiens; assay: Somatostatin sst2 Eurofins-Panlabs radioligand binding assay; set-up: ligand concentration 0.03 nM; conditions: Compound concentration 10.0 uM
[5] = system: Epidermal growth factor receptor (Homo sapiens), P00533 [T790M]; assay: EGFR (ErbB1) T790M Kinase screen; conditions: Compound concentration 1.0 uM
[6] = target: Mitogen-activated protein kinase kinase kinase kinase 4 (Homo sapiens) (UniProt O95819); assay: MAP4K4 (HGK) Kinase screen; conditions: Compound concentration 1.0 uM
[7] = target: C-X-C chemokine receptor type 4 (Homo sapiens) (UniProt P61073); assay: Chemokine CXCR4 Eurofins-Panlabs radioligand binding assay; set-up: ligand concentration 0.03 nM; conditions: Compound concentration 10.0 uM
[8] = target: Gamma-aminobutyric acid type B receptor subunit 1 (Homo sapiens) (UniProt Q9UBS5); conditions: Rattus norvegicus; Compound concentration 10.0 uM
[9] = target: Casein kinase I isoform delta (Homo sapiens) (UniProt P48730); assay: CSNK1D (CK1 delta) Kinase screen; conditions: Compound concentration 1.0 uM
[10] = target: D(1A) dopamine receptor (Homo sapiens) (UniProt P21728); conditions: Compound concentration 10.0 uM
[11] = target: G protein-coupled receptor kinase 4 (Homo sapiens) (UniProt P32298); assay: GRK4 Kinase screen; conditions: Compound concentration 1.0 uM
[12] = target: T2, Serine/threonine-protein kinase Nek9 (Homo sapiens) (UniProt Q8TD19); assay: NEK9 Kinase screen; conditions: Compound concentration 1.0 uM
T2 sequence (whole entry): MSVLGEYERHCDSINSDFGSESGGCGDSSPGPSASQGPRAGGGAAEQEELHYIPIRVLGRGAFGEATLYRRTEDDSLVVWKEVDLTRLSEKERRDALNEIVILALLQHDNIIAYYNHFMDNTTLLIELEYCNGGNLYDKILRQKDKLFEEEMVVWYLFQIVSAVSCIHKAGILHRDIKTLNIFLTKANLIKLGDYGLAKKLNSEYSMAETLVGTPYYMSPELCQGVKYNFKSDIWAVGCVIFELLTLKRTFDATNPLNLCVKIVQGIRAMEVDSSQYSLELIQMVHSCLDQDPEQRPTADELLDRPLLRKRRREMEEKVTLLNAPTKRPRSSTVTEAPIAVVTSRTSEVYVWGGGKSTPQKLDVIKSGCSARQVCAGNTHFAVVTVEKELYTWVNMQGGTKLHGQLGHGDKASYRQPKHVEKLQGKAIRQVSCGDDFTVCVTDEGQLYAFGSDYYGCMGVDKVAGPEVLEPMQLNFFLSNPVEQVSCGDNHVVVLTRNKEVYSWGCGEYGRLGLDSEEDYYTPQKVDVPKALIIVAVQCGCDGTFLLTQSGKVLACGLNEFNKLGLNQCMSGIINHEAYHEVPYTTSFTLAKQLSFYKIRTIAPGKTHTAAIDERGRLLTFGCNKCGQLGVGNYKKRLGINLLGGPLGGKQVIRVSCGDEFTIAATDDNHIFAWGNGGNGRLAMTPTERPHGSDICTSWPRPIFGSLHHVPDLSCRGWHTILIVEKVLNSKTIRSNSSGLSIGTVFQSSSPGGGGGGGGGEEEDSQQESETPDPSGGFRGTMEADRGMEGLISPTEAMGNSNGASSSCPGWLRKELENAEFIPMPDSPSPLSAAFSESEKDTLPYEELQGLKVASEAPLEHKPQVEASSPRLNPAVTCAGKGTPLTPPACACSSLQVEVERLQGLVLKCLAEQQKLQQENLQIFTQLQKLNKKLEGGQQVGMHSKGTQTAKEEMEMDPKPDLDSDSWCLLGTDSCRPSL

[13] = target: Phosphatidylinositol 4-kinase alpha (Homo sapiens) (UniProt P42356); assay: PI4KA (PI4K alpha) Kinase screen; conditions: Compound concentration 1.0 uM
[14] = target: Eukaryotic elongation factor 2 kinase (Homo sapiens) (UniProt O00418); assay: EEF2K Kinase screen; conditions: Compound concentration 1.0 uM
[15] = target: Fibroblast growth factor receptor 3 (Homo sapiens) (UniProt P22607); assay: FGFR3 Kinase screen; conditions: Compound concentration 1.0 uM
[16] = target: Cannabinoid receptor 1 (Homo sapiens) (UniProt P21554); conditions: Compound concentration 10.0 uM
[17] = target: Fibroblast growth factor receptor 1 (Homo sapiens) (UniProt P11362); assay: FGFR1 Kinase screen; conditions: Compound concentration 1.0 uM
[18] = target: Cyclin-dependent kinase 5/CDK5 activator 1 (Homo sapiens) (UniProt Q00535+Q15078); assay: CDK5/p35 Kinase screen; assay type: protein-complex assay; conditions: Compound concentration 1.0 uM
[19] = target: T3, Serine/threonine-protein kinase 17A (Homo sapiens) (UniProt Q9UEE5); assay: STK17A (DRAK1) Kinase screen; conditions: Compound concentration 1.0 uM
T3 sequence (whole entry): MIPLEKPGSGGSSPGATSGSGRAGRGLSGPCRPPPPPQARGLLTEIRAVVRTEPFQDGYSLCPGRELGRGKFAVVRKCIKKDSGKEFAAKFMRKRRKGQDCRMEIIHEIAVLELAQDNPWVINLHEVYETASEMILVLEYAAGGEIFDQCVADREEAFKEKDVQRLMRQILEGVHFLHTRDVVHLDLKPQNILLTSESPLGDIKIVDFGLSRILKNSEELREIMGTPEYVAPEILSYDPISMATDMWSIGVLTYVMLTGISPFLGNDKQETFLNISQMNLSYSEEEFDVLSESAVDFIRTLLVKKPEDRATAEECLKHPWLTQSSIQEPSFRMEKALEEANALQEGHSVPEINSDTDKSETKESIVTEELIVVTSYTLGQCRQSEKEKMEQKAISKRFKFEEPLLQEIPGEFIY

Measured: inhibition

Sequence of Receptor tyrosine-protein kinase erbB-2 (Homo sapiens) (P04626 whole entry): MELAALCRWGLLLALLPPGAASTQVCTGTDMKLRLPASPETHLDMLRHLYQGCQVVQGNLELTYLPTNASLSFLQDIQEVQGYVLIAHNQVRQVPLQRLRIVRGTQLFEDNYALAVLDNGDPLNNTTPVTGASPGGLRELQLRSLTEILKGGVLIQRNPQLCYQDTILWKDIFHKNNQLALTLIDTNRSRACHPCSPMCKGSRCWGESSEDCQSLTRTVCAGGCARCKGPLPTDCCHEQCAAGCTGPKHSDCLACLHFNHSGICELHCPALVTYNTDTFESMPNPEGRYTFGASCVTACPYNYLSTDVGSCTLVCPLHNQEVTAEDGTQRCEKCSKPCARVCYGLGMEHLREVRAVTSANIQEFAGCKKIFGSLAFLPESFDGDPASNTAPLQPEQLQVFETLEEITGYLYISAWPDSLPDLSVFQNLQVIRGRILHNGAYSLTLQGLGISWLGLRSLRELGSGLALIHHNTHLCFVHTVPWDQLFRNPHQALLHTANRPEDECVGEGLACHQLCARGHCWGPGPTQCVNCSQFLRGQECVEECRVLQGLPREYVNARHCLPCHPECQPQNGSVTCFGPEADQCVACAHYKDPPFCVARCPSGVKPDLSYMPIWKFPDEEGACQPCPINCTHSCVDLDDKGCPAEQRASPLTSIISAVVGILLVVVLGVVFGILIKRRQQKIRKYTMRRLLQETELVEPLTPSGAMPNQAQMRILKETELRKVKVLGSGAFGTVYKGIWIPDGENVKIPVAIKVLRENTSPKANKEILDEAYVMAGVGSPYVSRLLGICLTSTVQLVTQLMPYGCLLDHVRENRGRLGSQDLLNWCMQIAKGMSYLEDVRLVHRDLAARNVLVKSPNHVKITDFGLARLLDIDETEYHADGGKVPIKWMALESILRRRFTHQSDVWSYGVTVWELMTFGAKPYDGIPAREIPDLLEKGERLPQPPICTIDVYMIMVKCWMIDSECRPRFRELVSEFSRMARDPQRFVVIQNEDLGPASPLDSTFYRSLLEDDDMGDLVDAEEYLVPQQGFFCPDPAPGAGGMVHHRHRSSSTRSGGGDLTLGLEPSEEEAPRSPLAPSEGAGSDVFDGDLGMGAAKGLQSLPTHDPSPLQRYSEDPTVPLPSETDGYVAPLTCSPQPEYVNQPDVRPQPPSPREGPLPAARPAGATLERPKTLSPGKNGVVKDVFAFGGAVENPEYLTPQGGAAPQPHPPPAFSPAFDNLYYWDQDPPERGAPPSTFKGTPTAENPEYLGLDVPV
Sequence of C-X-C chemokine receptor type 4 (Homo sapiens) (P61073 whole entry): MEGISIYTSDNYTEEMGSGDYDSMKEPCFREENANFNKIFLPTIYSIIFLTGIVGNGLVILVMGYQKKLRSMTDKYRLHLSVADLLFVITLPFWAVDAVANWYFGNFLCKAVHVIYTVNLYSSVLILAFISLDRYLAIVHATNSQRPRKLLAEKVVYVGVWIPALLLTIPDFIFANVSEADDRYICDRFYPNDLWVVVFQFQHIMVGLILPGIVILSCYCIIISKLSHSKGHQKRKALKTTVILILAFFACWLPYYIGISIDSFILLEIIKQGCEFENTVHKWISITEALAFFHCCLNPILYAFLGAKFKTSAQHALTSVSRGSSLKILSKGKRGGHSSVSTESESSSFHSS
Sequence of Cannabinoid receptor 1 (Homo sapiens) (P21554 whole entry): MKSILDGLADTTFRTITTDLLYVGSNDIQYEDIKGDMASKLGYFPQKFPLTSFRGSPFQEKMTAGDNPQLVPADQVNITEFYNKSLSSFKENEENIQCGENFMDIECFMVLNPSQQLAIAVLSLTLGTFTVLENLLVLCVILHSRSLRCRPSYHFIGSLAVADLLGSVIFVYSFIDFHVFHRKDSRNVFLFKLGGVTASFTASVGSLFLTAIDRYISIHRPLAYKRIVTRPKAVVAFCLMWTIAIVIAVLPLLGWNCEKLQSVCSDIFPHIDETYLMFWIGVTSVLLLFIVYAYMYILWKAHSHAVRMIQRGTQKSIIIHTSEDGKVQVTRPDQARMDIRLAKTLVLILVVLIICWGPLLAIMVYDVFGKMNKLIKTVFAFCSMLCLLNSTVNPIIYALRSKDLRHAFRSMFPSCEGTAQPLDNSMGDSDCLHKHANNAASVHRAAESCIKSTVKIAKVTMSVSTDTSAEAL
Sequence of Epidermal growth factor receptor (Homo sapiens), P00533 [T790M] (P00533 whole entry T790M): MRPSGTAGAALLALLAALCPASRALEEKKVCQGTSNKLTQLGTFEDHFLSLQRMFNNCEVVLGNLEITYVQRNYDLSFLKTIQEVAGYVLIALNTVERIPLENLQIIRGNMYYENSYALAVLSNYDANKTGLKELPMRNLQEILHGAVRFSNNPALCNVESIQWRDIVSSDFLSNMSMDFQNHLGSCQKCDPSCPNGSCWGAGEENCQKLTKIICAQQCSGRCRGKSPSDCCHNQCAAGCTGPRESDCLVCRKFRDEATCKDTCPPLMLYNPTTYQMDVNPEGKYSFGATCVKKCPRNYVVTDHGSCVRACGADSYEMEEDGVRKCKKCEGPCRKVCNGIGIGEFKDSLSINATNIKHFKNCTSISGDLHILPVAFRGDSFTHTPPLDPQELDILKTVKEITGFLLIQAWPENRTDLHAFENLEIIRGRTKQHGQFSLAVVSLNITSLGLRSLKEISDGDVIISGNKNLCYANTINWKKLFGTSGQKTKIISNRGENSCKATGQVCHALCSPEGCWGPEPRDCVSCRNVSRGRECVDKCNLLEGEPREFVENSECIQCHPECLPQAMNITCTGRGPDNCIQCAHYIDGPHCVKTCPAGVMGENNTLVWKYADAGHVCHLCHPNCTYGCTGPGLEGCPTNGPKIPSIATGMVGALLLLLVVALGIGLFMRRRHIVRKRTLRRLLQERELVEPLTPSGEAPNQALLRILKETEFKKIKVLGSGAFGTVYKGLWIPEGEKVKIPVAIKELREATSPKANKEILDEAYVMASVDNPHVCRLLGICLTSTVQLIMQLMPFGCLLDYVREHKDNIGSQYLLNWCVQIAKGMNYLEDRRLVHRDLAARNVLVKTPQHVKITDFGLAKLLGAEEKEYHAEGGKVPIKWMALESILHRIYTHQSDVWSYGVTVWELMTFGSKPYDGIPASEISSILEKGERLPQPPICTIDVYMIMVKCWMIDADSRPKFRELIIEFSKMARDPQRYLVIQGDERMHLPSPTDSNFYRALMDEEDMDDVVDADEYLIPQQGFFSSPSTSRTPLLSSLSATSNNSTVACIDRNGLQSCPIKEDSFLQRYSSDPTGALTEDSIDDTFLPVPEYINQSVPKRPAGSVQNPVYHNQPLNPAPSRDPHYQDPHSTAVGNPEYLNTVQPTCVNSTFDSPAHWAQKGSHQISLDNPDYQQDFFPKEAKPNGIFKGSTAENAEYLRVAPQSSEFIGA
Sequence of Fibroblast growth factor receptor 3 (Homo sapiens) (P22607 23-806 limits assumed): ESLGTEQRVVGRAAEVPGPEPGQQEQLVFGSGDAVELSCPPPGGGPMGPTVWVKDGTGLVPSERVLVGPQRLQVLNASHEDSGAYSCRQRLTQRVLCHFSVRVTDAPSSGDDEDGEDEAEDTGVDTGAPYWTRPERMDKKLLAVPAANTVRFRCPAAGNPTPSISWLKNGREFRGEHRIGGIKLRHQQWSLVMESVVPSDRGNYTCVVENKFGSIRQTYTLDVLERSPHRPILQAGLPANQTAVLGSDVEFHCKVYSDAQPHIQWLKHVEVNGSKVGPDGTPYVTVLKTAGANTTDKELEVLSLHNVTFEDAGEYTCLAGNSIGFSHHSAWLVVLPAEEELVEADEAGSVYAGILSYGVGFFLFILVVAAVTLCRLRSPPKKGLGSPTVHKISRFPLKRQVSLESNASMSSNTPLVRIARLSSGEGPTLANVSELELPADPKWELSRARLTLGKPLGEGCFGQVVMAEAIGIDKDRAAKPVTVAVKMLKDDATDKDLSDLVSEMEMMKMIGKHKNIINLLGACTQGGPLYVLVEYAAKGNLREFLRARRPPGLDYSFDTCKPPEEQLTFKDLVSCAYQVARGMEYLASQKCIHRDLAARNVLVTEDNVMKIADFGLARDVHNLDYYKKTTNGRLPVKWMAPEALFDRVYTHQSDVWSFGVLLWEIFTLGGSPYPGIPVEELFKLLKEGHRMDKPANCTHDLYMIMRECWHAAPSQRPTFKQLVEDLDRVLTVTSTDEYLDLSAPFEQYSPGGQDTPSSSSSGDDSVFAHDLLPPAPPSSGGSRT
Sequence of G protein-coupled receptor kinase 4 (Homo sapiens) (P32298 whole entry, looked up): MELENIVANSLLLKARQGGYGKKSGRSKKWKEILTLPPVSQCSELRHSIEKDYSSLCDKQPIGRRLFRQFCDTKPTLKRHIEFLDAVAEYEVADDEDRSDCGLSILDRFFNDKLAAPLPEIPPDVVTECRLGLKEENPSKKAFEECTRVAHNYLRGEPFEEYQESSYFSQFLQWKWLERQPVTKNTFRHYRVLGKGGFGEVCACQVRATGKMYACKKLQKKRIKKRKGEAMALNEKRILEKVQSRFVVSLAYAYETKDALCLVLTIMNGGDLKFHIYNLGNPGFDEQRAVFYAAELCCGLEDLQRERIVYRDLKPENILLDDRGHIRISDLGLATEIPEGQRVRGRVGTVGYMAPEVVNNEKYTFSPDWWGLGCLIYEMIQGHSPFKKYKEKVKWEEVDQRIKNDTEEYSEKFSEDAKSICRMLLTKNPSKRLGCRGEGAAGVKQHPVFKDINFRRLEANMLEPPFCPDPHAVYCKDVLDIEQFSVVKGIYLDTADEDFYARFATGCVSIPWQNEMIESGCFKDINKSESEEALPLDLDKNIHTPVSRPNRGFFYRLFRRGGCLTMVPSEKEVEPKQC
Sequence of Casein kinase I isoform delta (Homo sapiens) (P48730 whole entry, looked up, canonical isoform): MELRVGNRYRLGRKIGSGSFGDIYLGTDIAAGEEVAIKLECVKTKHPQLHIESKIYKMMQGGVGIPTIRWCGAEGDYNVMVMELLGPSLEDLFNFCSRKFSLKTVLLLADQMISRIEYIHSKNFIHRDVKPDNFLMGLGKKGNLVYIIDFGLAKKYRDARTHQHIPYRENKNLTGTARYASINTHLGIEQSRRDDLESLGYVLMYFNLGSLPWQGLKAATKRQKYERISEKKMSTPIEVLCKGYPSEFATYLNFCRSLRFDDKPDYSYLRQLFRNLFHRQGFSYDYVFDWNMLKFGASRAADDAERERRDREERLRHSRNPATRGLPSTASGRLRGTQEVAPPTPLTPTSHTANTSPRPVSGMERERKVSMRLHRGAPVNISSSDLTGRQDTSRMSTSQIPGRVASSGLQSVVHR

C[C@@H]1CN(c2cc(-c3n[nH]c4ccc(OC5(C)CC5)cc34)ncn2)C[C@H](C)O1 [MLi-2]
inactive: [1] -2.46% | [2] 9% | [3] 9% | [4] 13% | [5] 3.93% | [6] 17.1% | [7] 3% | [8] -3% | [9] 0.974% | [10] 12% | [11] 6.02% | [12] -0.999% | [13] 5.35% | [14] 4.28% | [15] 9.38% | [16] 20% | [17] 3.88% | [18] -0.531% | [19] -2.27%
